This is an account of results in patent EP0430194A2, “Aryl-alkyl-azoles substituted with many times unsaturated groups, process for their preparation and their use” (HOECHST AKTIENGESELLSCHAFT, priority 1989, dated 1991).

In assay [1] the test system is Trichophyton mentagrophytes. As to the kind of experiment: Local in vivo efficacy, dermal treatment of guinea pigs infected with Trichophyton mentagrophytes. The conditions noted are these: Dermal 5 x 0,1 %; for Mykosen (Durchmesser in mm) Mittelwert (Standardabweich.): Meerschweinchen (Pirbright white), from day 3 after infection, n = 6; for Reduktion in %: Meerschweinchen, relative to Bifonazol = 100,0. The text has this: Als Beispiel für die hohe lokale in vivo Wirksamkeit der erfindungsgemäßen Verbindungen werden Behandlungsergebnisse an Experimenten mit Trichophyton mentagrophytes infizierten Labortieren angeführt.
Zur Feststellung der lokalen Wirksamkeit wurde jeweils ein 450 - 500 g schweres Meerschweinchen (Stamm Pirbright white) mit 1,5 x 10⁴ Konidien/Tier in die Epidermis verteilt auf 6 Infektionspunkte, infiziert.
Die Behandlung der Tiere erfolgte dermal ab dem 3. Tag nach der Infektion an 5 aufeinander folgenden Tagen durch Aufbringen einer 0,1 %igen Präparatlösung auf 6 Infektionsstellen der Rückenseite.
Neben den mit den erfindungsgemäßen Substanzen behandelten Tieren wurde ein Tier mit der Referenzsubstanz Bifonazol behandelt, ein Tier blieb nach der Infektion unbehandelt.

The test system of assay [2] is freigesetzten Exoenzyme von Candida albicans. As to the kind of experiment: In vitro enzyme test: inhibition of released exoenzymes of Candida albicans blastoconidia on egg-yolk agar plate. It counts as cell-based. The conditions noted are these: Stamm 200/175. The source says:
Als Beispiel für die Hemmung der pathogenen Phase dimorpher Hefezellen werden Ergebnisse eines in-vitro-Enzymtests angeführt, in welchen die prozentuale Hemmung freigesetzter Exoenzyme, insbesondere freigesetzter Lysophospholipase (Phospholipase B), als Maß für die Wirksamkeit bestimmt wird.
Zur Feststellung der Enzymhemmung wurde eine Suspension von Candida albicans Blastokonidien (Stamm 200/175), wobei die Keimdichte photometrisch auf eine Extinktion von 0,5 (500 nm) eingestellt war, mit Präparatelösung bzw. zur Kontrolle mit Lösungsmittellösung vermischt und zwar • a) 100 µl Präparatelösung (Suspension) + 900 µl Keimsuspension • b) 100 µl Lösungsmittel + 900 µl Keimsuspension
Jeweils 5 µl der 30 min bei 21°C inkubierten Blastokonidiensuspension wurden auf eine Agarplatte (Sabourand Agar mit Zusatz von 8 % Eigelb, 1 M NaCl, 5 mM CaCl₂) aufgetropft.
Die so beimpfte Platte wurde 3 Tage bei 37°C bebrütet.
Die Auswertung erfolgte derart, daß • 1. der Durchmesser (mm) der Candida albicans-Kolonie (behandelt und unbehandelt) sowie • 2. der Gesamtdurchmesser von Kolonie und Trübungshof, welcher durch Exoenzyme verursacht wurde (behandelt und unbehandelt) bestimmt wurde.
Aus der Bestimmung des Quotienten von Präparate- und Kontrollgruppe ergab sich ein Wert, der als Maß für die Enzymaktivität anzusehen war.

For assay [3], the system named is Phospholipase aus Leberzellen. The conditions noted are these: literature, Biochem. Pharmacol. 34, 521-24, 1985; cited from earlier work.
Where [4] appears, read: Präparat-Konzentration 10 µg/ml.
Setting [5] is: Präparat-Konzentration 50 µg/ml.
Where [6] appears, read: Präparat-Konzentration 100 µg/ml.

Take `CC(C)=CCC/C(C)=C\COC(CCn1ccnc1)c1cccs1` (racemic) [Beispiel 40]: in assay [1], the “Mykosen (Durchmesser in mm) Mittelwert (Standardabweich.)” value (shortened to “Mykosen (Durchmesser in mm) Mittelwert”) was 2,8 (1,7) mm and the Reduktion in % is 164,2%.
Regarding `CC(C)=CCC/C(C)=C\COC(Cn1cncn1)c1ccc(Cl)s1` (racemic) [Beispiel 42], the “Prozentuale Hemmung der freigesetzten Exoenzyme von Candida albicans in vitro” value in assay [2] (setting [4]) is on record as 50,0%; in assay [2] (setting [5]), 100%; in assay [2] (setting [6]) it was 100%.
As to `CC(C)=CCC/C(C)=C\COC(Cn1ccnc1)c1ccccn1` (racemic) [Beispiel 46], in assay [1], the “Mykosen (Durchmesser in mm) Mittelwert” value is on record as 2,8 (1,6) mm and the Reduktion in % is reported as 164,2%.
Consider `CC(C)NCC(O)COc1cccc2ccccc12` (stereo not shown) [Propranolol, reference compound], for which the “Hemmwirkung gegenüber Phospholipase aus Leberzellen” value in assay [3] is listed as “Hemmwirkung zeigte”. Also, the “Prozentuale Hemmung der freigesetzten Exoenzyme von Candida albicans in vitro” value worked out at 0% in assay [2] (setting [4]), 10% in assay [2] (setting [5]) and 30% in assay [2] (setting [6]).
Regarding `CC(C)=CCC/C(C)=C\COC(Cn1cncn1)c1ccc(Cl)cc1Cl` (racemic) [Beispiel 5], in assay [1], the “Mykosen (Durchmesser in mm) Mittelwert” value is given as 2,6 (1,5) mm and the Reduktion in % is 176,9%.
Turning to `CC(C)=CCC/C(C)=C\COC(Cn1ccnc1)c1ccc(Cl)cc1Cl` (racemic) [Beispiel 2, (R,S)-1-(2,4-Dichlorphenyl)-1-(cis-3,7-dimethyl-2,6-octadien-1-oxy)-2-(imidazol-1-yl)-ethan], the “Prozentuale Hemmung der freigesetzten Exoenzyme von Candida albicans in vitro” value in assay [2] (setting [4]) is recorded as 41,2%; in assay [2] (setting [5]) it was 100%; in assay [2] (setting [6]) it was 100%. In assay [1], the “Mykosen (Durchmesser in mm) Mittelwert” value is recorded as 3,3 (0,5) mm. The Reduktion in % in assay [1] is given as 139,3%.
For the compound `CC(C)=CCC/C(C)=C\COC(Cn1ccnc1)c1ccco1` (racemic) [Beispiel 47], in assay [1], the “Mykosen (Durchmesser in mm) Mittelwert” value is recorded as 3,6 (0,8) mm and the Reduktion in % is 127,7%.
Consider `c1ccc(-c2ccc(C(c3ccccc3)n3ccnc3)cc2)cc1` (stereo not shown) [Bifonazol, reference compound], for which, in assay [1], the “Mykosen (Durchmesser in mm) Mittelwert” value is recorded as 4,6 (1,5) mm and the Reduktion in % was 100,0%.
